Assay results reported in the supplement of paper PMC11451515.

Tested on: SEM cells
Experiment: cell viability relative to DMSO control; higher = less cytotoxic
Settings: 48 h
Procedure, shortened: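 Leukemia cells (NOMO1 or SEM, 500 cells/well; P12-Ichikawa, 1000 cells/well) were seeded in 5 μl in 1536-well plates after at least four passages of adaptation to each medium. They received library compounds in DMSO by pin dosing, 11 threefold points from 47 μM to 0.79 nM. Luminescence with CellTiter-Glo One was read after 48 h at 37°C. Viability is stated per plate relative to DMSO wells, with cell-free wells as background.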

[1] = HPLM + 10% dialyzed FBS, 0.000781 µM
[2] = HPLM + 10% dialyzed FBS, 0.00234 µM
[3] = HPLM + 10% dialyzed FBS, 0.00702 µM
[4] = HPLM + 10% dialyzed FBS, 0.0211 µM
[5] = HPLM + 10% dialyzed FBS, 0.0632 µM
[6] = HPLM + 10% dialyzed FBS, 0.19 µM
[7] = HPLM + 10% dialyzed FBS, 0.569 µM
[8] = HPLM + 10% dialyzed FBS, 1.71 µM
[9] = HPLM + 10% dialyzed FBS, 5.12 µM
[10] = HPLM + 10% dialyzed FBS, 15.4 µM
[11] = HPLM + 10% dialyzed FBS, 46.1 µM
[12] = RPMI 5 mM glucose + 10% FBS, 0.000781 µM
[13] = RPMI 5 mM glucose + 10% FBS, 0.00234 µM
[14] = RPMI 5 mM glucose + 10% FBS, 0.00702 µM
[15] = RPMI 5 mM glucose + 10% FBS, 0.0211 µM
[16] = RPMI 5 mM glucose + 10% FBS, 0.0632 µM
[17] = RPMI 5 mM glucose + 10% FBS, 0.19 µM
[18] = RPMI 5 mM glucose + 10% FBS, 0.569 µM
[19] = RPMI 5 mM glucose + 10% FBS, 1.71 µM
[20] = RPMI 5 mM glucose + 10% FBS, 5.12 µM
[21] = RPMI 5 mM glucose + 10% FBS, 15.4 µM
[22] = RPMI 5 mM glucose + 10% FBS, 46.1 µM
[23] = RPMI 5 mM glucose + 10% dialyzed FBS, 0.000781 µM
[24] = RPMI 5 mM glucose + 10% dialyzed FBS, 0.00234 µM
[25] = RPMI 5 mM glucose + 10% dialyzed FBS, 0.00702 µM
[26] = RPMI 5 mM glucose + 10% dialyzed FBS, 0.0211 µM
[27] = RPMI 5 mM glucose + 10% dialyzed FBS, 0.0632 µM
[28] = RPMI 5 mM glucose + 10% dialyzed FBS, 0.19 µM
[29] = RPMI 5 mM glucose + 10% dialyzed FBS, 0.569 µM
[30] = RPMI 5 mM glucose + 10% dialyzed FBS, 1.71 µM
[31] = RPMI 5 mM glucose + 10% dialyzed FBS, 5.12 µM
[32] = RPMI 5 mM glucose + 10% dialyzed FBS, 15.4 µM
[33] = RPMI 5 mM glucose + 10% dialyzed FBS, 46.1 µM

Compound | cell viability [1] | cell viability [2] | cell viability [3] | cell viability [4] | cell viability [5] | cell viability [6] | cell viability [7] | cell viability [8] | cell viability [9] | cell viability [10] | cell viability [11] | cell viability [12] | cell viability [13] | cell viability [14] | cell viability [15] | cell viability [16] | cell viability [17] | cell viability [18] | cell viability [19] | cell viability [20] | cell viability [21] | cell viability [22] | cell viability [23] | cell viability [24] | cell viability [25] | cell viability [26] | cell viability [27] | cell viability [28] | cell viability [29] | cell viability [30] | cell viability [31] | cell viability [32] | cell viability [33]
Cc1ccccc1C(=O)Nc1ccc(C(=O)N2CCCC(O)c3cc(Cl)ccc32)c(C)c1 (centres undefined) | 109% | 97.2% | 97.9% | 112% | 113% | 117% | 131% | 42.2% | 108% | 127% | 121% | 122% | 109% | 123% | 136% | 141% | 127% | 137% | 32.9% | 140% | 151% | 146% | 103% | 116% | 112% | 140% | 132% | 136% | 149% | 56.3% | 146% | 140% | 133%
CC1=CC(=CC(=C1C\C2=N\CCN2)C)C(C)(C)C | 58.5% | 90.1% | 83.4% | 100% | 88.3% | 98.1% | 97.4% | 100% | 106% | 107% | 77.6% | 77.8% | 104% | 91.7% | 101% | 103% | 96.4% | 110% | 104% | 110% | 83.3% | 94.9% | 89.1% | 96.3% | 102% | 105% | 118% | 107% | 118% | 112% | 113% | 120% | 94.7%
CC(C)(O)CC(=O)NCCn1ccc2ncnc(Nc3ccc(Oc4cccc(C(F)(F)F)c4)c(Cl)c3)c21 | 106% | 110% | 102% | 103% | 112% | 105% | 103% | 96.5% | 94.6% | 71.6% | 32.9% |  |  |  |  |  |  |  |  |  |  |  | 105% | 88% | 102% | 103% | 109% | 107% | 100% | 101% | 90.4% | 58.5% | 23.6%
CNc1nc(Nc2cnn([C@H]3CCN(C4COC4)C[C@@H]3F)c2Cl)ncc1C(F)(F)F | 96% | 89.1% | 97.7% | 103% | 109% | 105% | 112% | 93.1% | 37.7% | 20.9% | 26.5% | 103% | 123% | 108% | 112% | 85.3% | 55.7% | 65.5% | 20.1% | 18.9% | 16.1% | 17.6% | 101% | 106% | 112% | 116% | 126% | 106% | 106% | 73.6% | 32% | 17.6% | 17.1%
NC[C@H]1O[C@H](O[C@@H]2[C@H](O)[C@@H](O[C@H]3O[C@H](CO)[C@@H](O)[C@H](N)[C@H]3O)[C@H](N)C[C@@H]2N)[C@H](O)[C@@H](O)[C@@H]1O | 96.6% | 93.3% | 100% | 24% | 88.6% | 105% | 105% | 96.8% | 105% | 90.1% | 87.3% |  |  |  |  |  |  |  |  |  |  |  | 115% | 125% | 124% | 23% | 113% | 83.3% | 107% | 113% | 105% | 104% | 92.4%
CC(C(=O)O)c1ccc2c(c1)CC(=O)c1ccccc1S2 (centres undefined) | 99.9% | 117% | 109% | 115% | 94.3% | 112% | 95.4% | 114% | 126% | 116% | 115% | 111% | 109% | 116% | 104% | 103% | 105% | 117% | 121% | 99.4% | 107% | 96.5% | 122% | 115% | 129% | 133% | 124% | 108% | 116% | 117% | 110% | 129% | 118%
CNC(=O)c1ccc(Nc2cc(Nc3ccccc3[S+](=O)([O-])C(C)C)c3cc[nH]c3n2)nc1 | 81.7% | 76.4% | 96.5% | 90.7% | 89.8% | 98.3% | 82.9% | 38.2% | 28.4% | 24.3% | 16.8% | 93.5% | 118% | 106% | 114% | 104% | 102% | 101% | 48.9% | 20.8% | 17.7% | 6.52% | 83.9% | 99.4% | 98.5% | 94.7% | 102% | 97.6% | 85% | 27% | 20.1% | 17.4% | 7.56%
